Values belong to the compound of their own block, whether it stands above or below them.
What was measured:
human CYP11B1 = molecular target: T1, human CYP11B1 (Homo sapiens, UniProt P15538); assay: Inhibition of cortisol production in V79-B1 cells expressing human CYP11B1 (ELISA); format: cell-based; details: 11-deoxycortisol 100 nmol/L, 1 hour, unlabeled form, read-out: IC50 against cortisol production
T1 construct: expressed in transfected cells; host or cells: Chinese hamster lung-derived fibroblast V79 cells (V79-B1)
T1 sequence (P15538 25-503): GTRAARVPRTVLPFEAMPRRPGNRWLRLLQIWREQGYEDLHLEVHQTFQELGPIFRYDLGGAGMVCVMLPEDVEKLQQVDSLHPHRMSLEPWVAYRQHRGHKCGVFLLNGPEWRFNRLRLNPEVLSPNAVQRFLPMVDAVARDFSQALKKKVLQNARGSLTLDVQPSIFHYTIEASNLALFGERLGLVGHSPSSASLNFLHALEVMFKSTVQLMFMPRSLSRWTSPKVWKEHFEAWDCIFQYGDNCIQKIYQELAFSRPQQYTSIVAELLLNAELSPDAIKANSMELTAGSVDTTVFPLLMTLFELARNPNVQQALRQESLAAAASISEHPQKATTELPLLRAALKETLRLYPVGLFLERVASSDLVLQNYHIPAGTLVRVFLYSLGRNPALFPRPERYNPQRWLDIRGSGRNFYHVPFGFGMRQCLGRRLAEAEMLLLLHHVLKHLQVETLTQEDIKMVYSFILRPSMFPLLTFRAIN
Method: (§1) Chinese hamster lung-derived fibroblast V79 cells (obtained from European Collection of Cell Cultures (ECACC) via DS Pharma Biomedical Co., Ltd.) were allowed to express human CYP11B2 and human CYP11B1 to prepare V79-B2 and V79-B1, respectively. V79-B2 or V79-B1 was inoculated to a microplate and cultured overnight. Then, corticosterone and 11-deoxycortisol were added at final concentrations of 100 nmol/L into the culture supernatants of V79-B2 and V79-B1, respectively. At the same time, iodometomidate (IMTO) or the unlabeled form of PAY15, PAY21, PAY27, or PAY54 synthesized in Example 2, 5, 8, or 12 was added at a final concentration of 10^−4 to 10^3 nmol/L into the culture supernatants. One hour later, the culture supernatant of V79-B1 was recovered, and the concentration of cortisol, which is a metabolite of CYP11B1, was measured by enzyme-linked immunosorbent assay (ELISA). Four hours later, the culture supernatant of V79-B2 was recovered, and the concentration of aldosterone, which is a metabolite of CYP11B2, was measured by ELISA. […] IC50 against cortisol production/IC50 against aldosterone production was calculated and used as a selectivity factor for CYP11B2.

CYP11B2 = molecular target: T2, CYP11B2 (Homo sapiens, UniProt P19099); assay: Inhibition of aldosterone production in V79-B2 cells expressing human CYP11B2 (ELISA); format: cell-based; design: expressed in transfected cells; host or cells: Chinese hamster lung-derived fibroblast V79 cells (V79-B2); details: for Selectivity factor: IC50 against cortisol production/IC50 against aldosterone production, selectivity factor for CYP11B2; for IC50: V79-B2 cells, corticosterone 100 nmol/L, 4 hours, unlabeled form, read-out: IC50 against aldosterone production; for selectivity factor compared with IMTO: selectivity factor for CYP11B2, Table 6
T2 sequence (P19099 25-503): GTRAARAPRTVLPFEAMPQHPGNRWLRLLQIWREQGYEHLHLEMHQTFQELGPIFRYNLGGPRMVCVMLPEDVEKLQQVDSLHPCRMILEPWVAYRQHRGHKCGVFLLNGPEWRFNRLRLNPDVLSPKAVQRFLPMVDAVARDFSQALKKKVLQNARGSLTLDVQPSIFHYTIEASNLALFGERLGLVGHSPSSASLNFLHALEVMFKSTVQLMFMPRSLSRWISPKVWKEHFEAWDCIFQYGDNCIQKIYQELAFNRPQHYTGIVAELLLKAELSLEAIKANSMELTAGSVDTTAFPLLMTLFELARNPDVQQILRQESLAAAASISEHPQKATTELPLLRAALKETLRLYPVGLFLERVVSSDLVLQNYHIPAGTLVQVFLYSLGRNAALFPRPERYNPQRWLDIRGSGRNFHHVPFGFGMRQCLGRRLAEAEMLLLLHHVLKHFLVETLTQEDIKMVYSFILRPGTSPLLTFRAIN
Method: as §1

[1] = Pharmacokinetic and distribution experiment (radioactivity in blood and excised organs after tail vein injection); format: in vivo; details: ddy mice; for Adrenal gland/Blood ratio / Radioactivity Distribution, Blood / Radioactivity Distribution, Femur / Radioactivity Distribution, Heart / Radioactivity Distribution, Large intestine / Radioactivity Distribution, Lung / Radioactivity Distribution, Small intestine / Radioactivity Distribution, Spleen / Radioactivity Distribution, Stomach / Adrenal gland/Kidney ratio / Radioactivity Distribution, Adrenal gland / Radioactivity Distribution, Kidney / Radioactivity Distribution, Liver / Radioactivity Distribution, Pancreas / Adrenal gland/Liver ratio: tail vein injection; for Adrenal gland/Blood ratio / Radioactivity Distribution, Blood / Radioactivity Distribution, Femur / Radioactivity Distribution, Heart / Radioactivity Distribution, Large intestine / Radioactivity Distribution, Lung / Radioactivity Distribution, Small intestine / Radioactivity Distribution, Spleen / Radioactivity Distribution, Stomach: 14.8 kBq (4 μCi); for Adrenal gland/Kidney ratio / Radioactivity Distribution, Adrenal gland / Radioactivity Distribution, Kidney / Radioactivity Distribution, Liver / Radioactivity Distribution, Pancreas: 14.8 kBq
Method: (§2) The HPLC fraction of [^125I]PAY15 obtained in Example 3 was concentrated and then diluted with saline. The resulting solution was used in administration. 100 μL of the solution (18.5 kBq (0.5 μCi)) was injected to the tail vein of each of five ddy mice (6 weeks old). Five minutes later, each mouse was decapitated, and blood was collected. Then, organs (adrenal gland, pancreas, heart, lung, stomach, small intestine, large intestine, liver, spleen, kidney, and thyroid gland) were excised. After measurement of their weights, the radioactivities of blood and each excised organ were measured. Also, the point in time when each mouse was decapitated was changed to 5, 15, 30, 60, and 120 minutes later to perform similar operation.
The HPLC fraction of [^125I]PAY21 obtained in Example 6 was concentrated and then diluted with saline. The resulting solution was used in administration to perform the same operation as in Evaluation 1.
as §2, with “[^18F]PAY27 obtained” for “The HPLC fraction of [^125I]PAY15 obtained”, “Example 10” for “Example 3”, “was” for “was concentrated and then”, “solution (14.8” for “solution (18.5”, “kBq (4” for “kBq (0.5”, “and thigh bone)” for “and thyroid gland)”
as §2, with “[^18F]PAY54 obtained” for “The HPLC fraction of [^125I]PAY15 obtained”, “Example 13” for “Example 3”, “was” for “was concentrated and then”, “solution (14.8” for “solution (18.5”, “kBq (4” for “kBq (0.5”, “and thigh bone)” for “and thyroid gland)”

Compound: O=C1CCc2cc(-c3cncc(I)c3)cc3c2N1CC3 [PAY21, 8-(5-iodopyridin-3-yl)-1,2,5,6-tetrahydro-4H-pyrrolo[3,2,1-ij]quinolin-4-one]
IC50 (human CYP11B1): 21.1 nM
Selectivity factor (CYP11B2): 26.09
IC50 (CYP11B2): 0.81 nM
selectivity factor compared with IMTO (CYP11B2): higher than that of IMTO

Compound: O=C1CCc2cc(-c3cncc(I)c3)cc3c2N1CCC3 [PAY15, 9-(5-iodopyridin-3-yl)-1,2,6,7-tetrahydro-5H-pyrido[3,2,1-ij]quinolin-3-one]
IC50 (human CYP11B1): 141 nM
Selectivity factor (CYP11B2): 223.95
IC50 (CYP11B2): 0.63 nM
selectivity factor compared with IMTO (CYP11B2): higher than that of IMTO

Compound: O=C1CCc2cc(-c3cncc(OCC[18F])c3)cc3c2N1CC3 [[^18F]PAY54, 8-(5-(2-[^18F]fluoroethyloxy)pyridin-3-yl)-1,2,5,6-tetrahydro-4H-pyrrolo[3,2,1-ij]quinolin-4-one]
radioactivity accumulation in the adrenal gland compared with blood and the kidney ([1]; 5 minutes after administration): high radioactivity accumulation
Adrenal gland/Blood ratio ([1]; 5 min): 1.55 ± 0.43
Radioactivity Distribution, Blood ([1]; 5 min): 4.5 ± 0.2 % dose/g
Radioactivity Distribution, Femur ([1]; 5 min): 1.9 ± 0.2 % dose/g
Radioactivity Distribution, Heart ([1]; 5 min): 4.5 ± 0.5 % dose/g
Radioactivity Distribution, Large intestine ([1]; 5 min): 3.5 ± 0.3 % dose/g
Radioactivity Distribution, Lung ([1]; 5 min): 4.6 ± 0.2 % dose/g
Radioactivity Distribution, Small intestine ([1]; 5 min): 5.6 ± 0.3 % dose/g
Radioactivity Distribution, Spleen ([1]; 5 min): 3.6 ± 0.2 % dose/g
Radioactivity Distribution, Stomach ([1]; 5 min): 4.6 ± 1.5 % dose/g
Adrenal gland/Blood ratio ([1]; 15 min): 0.86 ± 0.15
Radioactivity Distribution, Blood ([1]; 15 min): 4.5 ± 0.2 % dose/g
Radioactivity Distribution, Femur ([1]; 15 min): 2.3 ± 0.1 % dose/g
Radioactivity Distribution, Heart ([1]; 15 min): 3.8 ± 0.2 % dose/g
Radioactivity Distribution, Large intestine ([1]; 15 min): 6.2 ± 0.5 % dose/g
Radioactivity Distribution, Lung ([1]; 15 min): 3.7 ± 0.2 % dose/g
Radioactivity Distribution, Small intestine ([1]; 15 min): 5.3 ± 0.6 % dose/g
Radioactivity Distribution, Spleen ([1]; 15 min): 3.1 ± 0.2 % dose/g
Radioactivity Distribution, Stomach ([1]; 15 min): 4.9 ± 0.4 % dose/g
Adrenal gland/Blood ratio ([1]; 30 min): 0.82 ± 0.13
Radioactivity Distribution, Blood ([1]; 30 min): 4.3 ± 0.4 % dose/g
Radioactivity Distribution, Femur ([1]; 30 min): 2.7 ± 0.3 % dose/g
Radioactivity Distribution, Heart ([1]; 30 min): 3.7 ± 0.5 % dose/g
Radioactivity Distribution, Large intestine ([1]; 30 min): 8.5 ± 0.5 % dose/g
Radioactivity Distribution, Lung ([1]; 30 min): 3.4 ± 0.2 % dose/g
Radioactivity Distribution, Small intestine ([1]; 30 min): 5.0 ± 0.9 % dose/g
Radioactivity Distribution, Spleen ([1]; 30 min): 3.1 ± 0.1 % dose/g
Radioactivity Distribution, Stomach ([1]; 30 min): 3.5 ± 0.2 % dose/g
Adrenal gland/Blood ratio ([1]; 60 min): 1.16 ± 0.15
Radioactivity Distribution, Blood ([1]; 60 min): 3.5 ± 0.5 % dose/g
Radioactivity Distribution, Femur ([1]; 60 min): 3.4 ± 0.7 % dose/g
Radioactivity Distribution, Heart ([1]; 60 min): 2.9 ± 0.5 % dose/g
Radioactivity Distribution, Large intestine ([1]; 60 min): 7.7 ± 1.2 % dose/g
Radioactivity Distribution, Lung ([1]; 60 min): 2.9 ± 0.4 % dose/g
Radioactivity Distribution, Small intestine ([1]; 60 min): 3.7 ± 0.7 % dose/g
Radioactivity Distribution, Spleen ([1]; 60 min): 2.3 ± 0.6 % dose/g
Radioactivity Distribution, Stomach ([1]; 60 min): 4.3 ± 0.3 % dose/g
Adrenal gland/Blood ratio ([1]; 120 min): 0.61 ± 0.63
Radioactivity Distribution, Blood ([1]; 120 min): 2.8 ± 0.2 % dose/g
Radioactivity Distribution, Femur ([1]; 120 min): 4.5 ± 0.1 % dose/g
Radioactivity Distribution, Heart ([1]; 120 min): 2.4 ± 0.4 % dose/g
Radioactivity Distribution, Large intestine ([1]; 120 min): 7.9 ± 0.7 % dose/g
Radioactivity Distribution, Lung ([1]; 120 min): 2.2 ± 0.2 % dose/g
Radioactivity Distribution, Small intestine ([1]; 120 min): 2.4 ± 0.1 % dose/g
Radioactivity Distribution, Spleen ([1]; 120 min): 2.0 ± 0.2 % dose/g
Radioactivity Distribution, Stomach ([1]; 120 min): 3.5 ± 0.6 % dose/g
Adrenal gland/Kidney ratio ([1]; 5 min): 1.60 ± 0.50
Radioactivity Distribution, Adrenal gland ([1]; 5 min): 7.0 ± 2.1 % dose/g
Radioactivity Distribution, Kidney ([1]; 5 min): 4.4 ± 0.5 % dose/g
Radioactivity Distribution, Liver ([1]; 5 min): 7.5 ± 0.5 % dose/g
Radioactivity Distribution, Pancreas ([1]; 5 min): 3.4 ± 0.3 % dose/g
Adrenal gland/Kidney ratio ([1]; 15 min): 1.11 ± 0.15
Radioactivity Distribution, Adrenal gland ([1]; 15 min): 3.9 ± 0.8 % dose/g
Radioactivity Distribution, Kidney ([1]; 15 min): 3.5 ± 0.6 % dose/g
Radioactivity Distribution, Liver ([1]; 15 min): 6.0 ± 0.4 % dose/g
Radioactivity Distribution, Pancreas ([1]; 15 min): 2.7 ± 0.2 % dose/g
Adrenal gland/Kidney ratio ([1]; 30 min): 0.98 ± 0.15
Radioactivity Distribution, Adrenal gland ([1]; 30 min): 3.5 ± 0.4 % dose/g
Radioactivity Distribution, Kidney ([1]; 30 min): 3.6 ± 0.4 % dose/g
Radioactivity Distribution, Liver ([1]; 30 min): 5.7 ± 0.6 % dose/g
Radioactivity Distribution, Pancreas ([1]; 30 min): 2.6 ± 0.2 % dose/g
Adrenal gland/Kidney ratio ([1]; 60 min): 1.40 ± 0.34
Radioactivity Distribution, Adrenal gland ([1]; 60 min): 4.1 ± 1.0 % dose/g
Radioactivity Distribution, Kidney ([1]; 60 min): 3.0 ± 0.3 % dose/g
Radioactivity Distribution, Liver ([1]; 60 min): 5.0 ± 0.3 % dose/g
Radioactivity Distribution, Pancreas ([1]; 60 min): 2.4 ± 0.4 % dose/g
Adrenal gland/Kidney ratio ([1]; 120 min): 0.58 ± 0.54
Radioactivity Distribution, Adrenal gland ([1]; 120 min): 2.0 ± 1.5 % dose/g
Radioactivity Distribution, Kidney ([1]; 120 min): 2.8 ± 0.4 % dose/g
Radioactivity Distribution, Liver ([1]; 120 min): 4.7 ± 0.6 % dose/g
Radioactivity Distribution, Pancreas ([1]; 120 min): 1.7 ± 0.2 % dose/g
Adrenal gland/Liver ratio ([1]; 5 min): 0.95 ± 0.34
Adrenal gland/Liver ratio ([1]; 15 min): 0.64 ± 0.13
Adrenal gland/Liver ratio ([1]; 30 min): 0.61 ± 0.12
Adrenal gland/Liver ratio ([1]; 60 min): 0.82 ± 0.19
Adrenal gland/Liver ratio ([1]; 120 min): 0.38 ± 0.41

The remaining lines, values ahead:

IC50 (human CYP11B1): 13.1 nM
Selectivity factor (CYP11B2): 55.49
IC50 (CYP11B2): 0.24 nM
selectivity factor compared with IMTO (CYP11B2): higher than that of IMTO
Compound: O=C1CCc2cc(-c3cncc(OCCF)c3)cc3c2N1CC3 [PAY54, 8-(5-(2-fluoroethyloxy)pyridin-3-yl)-1,2,5,6-tetrahydro-4H-pyrrolo[3,2,1-ij]quinolin-4-one]

IC50 (human CYP11B1): 78.6 nM
Selectivity factor (CYP11B2): 81.42
IC50 (CYP11B2): 0.97 nM
selectivity factor compared with IMTO (CYP11B2): higher than that of IMTO
Compound: O=C1CCc2cc(-c3cncc(OCCF)c3)cc3c2N1CCC3 [PAY27, 9-(5-(2-fluoroethyloxy)pyridin-3-yl)-1,2,6,7-tetrahydro-5H-pyrido[3,2,1-ij]quinolin-3-one]
